# Measured values from patent publication US10709907B2, “Taurine and aloe synergistic anti-irritant compositions and methods” (Colgate-Palmolive Company, priority 2016, dated 2020).
# Legend:
# [1] = tested on: IL-1α release, 3D EpiDerm skin models (SIT-200 skin irritation model); test: Irritation Assay (IL-1α Release Assay) by ELISA; format: cell-based, human; settings: untreated Control = 100
# From the text: (§1) Two in vitro reconstructed human epidermis models were employed to assess the relative irritation potential of selected test samples, the Cytotoxicity Assay (MTT) and the Irritation Assay (IL-1α Release Assay), described below.
# Irritation Assay (IL-1α Release Assay):
# To document the skin irritation of Antiperspirant Active Ingredients, we have conducted in vitro experiments using 3D EpiDerm skin models (SIT-200 skin irritation model, MatTek Corporation, Ashland, Mass. 01721). In vitro skin samples were treated topically with the test compound for 1 hour in tissue culture incubator. Following the incubation, skin samples were washed with PBS and placed in a culture medium and continue to incubate for 24 hours. Cell culture media was collected for IL-1α release assay. Higher the IL-1a release means higher the irritation potential. IL-1α release was analyzed by ELISA assay kit (Invitrogen, Grand Island, N.Y. 14072) and (R&D Systems, Minneapolis, Minn. 55413).
# [2] = tested on: In vitro skin samples (MatTek EpiDerm); test: Cytotoxicity Assay (MTT), cell viability of reconstructed human epidermis; format: cell-based; settings: for MTT (% cell viability): untreated Control = 100
# Protocol: as §1
# Cytotoxicity Assay (MTT):
# Cell damage was evaluated by assessing mitochondrial metabolic activity using 3-[4,5-dimethylthiazol-2-yl]-2,5-diphenyltetrazolium bromide (MTT-reduction assay) upon exposure to the test sample. MTT solution was prepared as 1.0 mg/ml in Phosphate Buffered Saline (PBS) just before usage. In vitro skin samples (MatTek EpiDerm) were treated topically with the test sample for 1 hour in a tissue culture incubator. Following the incubation, skin samples were washed with PBS and placed in 24 well tissue culture plates, and 500 μl of the MTT solutions were added to each well and incubated at 37° C. for 2 hours. The cell survivability was analyzed by measuring the ability of the cell's mitochondria to reduce the colorless MTT to a colored formazan crystalline end product. The reaction was terminated by the removal of the MTT solution from the wells. Addition of 1.0 mL of 0.04M HCl in isopropanol to each well was used to dissolve the intracellular MTT formazan crystals. The contents of each well were mixed gently in an orbital shaker at room temperature for 1 hour and the absorbency at 570 nm was measured by an ELISA plate reader (SpectraMax M5 Multi-Mode Microplate Readers, Molecular Devices, California).
Structure (SMILES),"IL-1α (percentage compared to untreated tissue) ([1]; Example 3, formulated samples)","MTT (% cell viability) ([2]; Example 3, formulated samples)","IL-1α (percentage of the test value for the Control) ([1]; Example 1, topical treatment 1 hour, then 24 hours in culture medium)","IL-1α (percentage compared to untreated tissue) ([1]; Example 2, topical treatment 1 hour, then 24 hours in culture medium)","MTT (% cell viability) ([2]; Example 1, topical treatment 1 hour)",reduction of cell viability compared to untreated tissue (MTT) ([2]; Example 2),"MTT (% cell viability) ([2]; Example 2, topical treatment 1 hour)"
"O.O.O.O.O.O.[Al+3].[Cl-].[Cl-].[Cl-] [12% AlCl3, Aluminum Chloride Hexaaqua]",234%,99%,–,–,–,–,–
"O.O.O.O.O.O.[Al+3].[Cl-].[Cl-].[Cl-] [14% AlCl3, Aluminum Chloride Hexaaqua]",–,–,345%,594%,78%,15-20%,84%
